The numbers were not newly measured in patent US20070141100A1, “Drug-eluting biodegradable stent” (priority 2003, published 2007), which cites them from elsewhere.

For data set [1] the following is noted: glutaraldehyde used to crosslink materials.
The subject of data set [2] is tissue culture.
Data set [3] relates to mice. The following applies: i.v.
For data set [4], the system named is Chinese hamster ovary (CHO-K1) cells. The settings on record: in vitro.
For data set [5], the system named is 3T3 fibroblasts. The following applies: in vitro.
Data set [6] deals with neointimal proliferation. The following applies: animal studies, compared with a control bare metal stent.
Data set [7] has as its system renal transplant recipients. The following applies: everolimus trough serum concentrations above 7.8 ng/ml.

Each structure is given as a SMILES string. “Also recorded” adds a separate entry of the source.

Turning to `O=CCCCC=O` [glutaraldehyde], in data set [1], the “crosslinking concentration giving a persistent foreign-body reaction” value is given as “above 0.05%”. In addition, in data set [2], the “cytotoxic at concentrations greater than” value is on record as 10-25 ppm. Also, in data set [2] (in tissue culture), the “cytotoxic at concentrations as low as” value was 3 ppm.

For the compound `COC(=O)C1=CO[C@@H](O)[C@@H]2C(CO)=CC[C@H]12` [genipin], the LD50 in data set [3] is 382 mg/k. For the same compound, the “clastogenic response (genotoxicity)” value in data set [4] is “does not cause clastogenic response”. The “cytotoxicity compared with glutaraldehyde” value in data set [5] is on record as “substantially less cytotoxic than glutaraldehyde; also recorded: significantly less cytotoxic than glutaraldehyde”.

In the case of `CO[C@H]1C[C@@H]2CC[C@@H](C)[C@@](O)(O2)C(=O)C(=O)N2CCCC[C@H]2C(=O)O[C@H]([C@H](C)C[C@@H]2CC[C@@H](OCCO)[C@H](OC)C2)CC(=O)[C@H](C)/C=C(\C)[C@@H](O)[C@@H](OC)C(=O)[C@H](C)C[C@H](C)/C=C/C=C/C=C/1C` [Everolimus], the solubility in water result is recorded as “poorly soluble in water”. Moreover, the “reduction of neointimal proliferation” value in data set [6] is 50%. Further, the rate of thrombocytopenia in data set [7] is 17%.

`CO[C@H]1C[C@@H]2CC[C@@H](C)[C@@](O)(O2)C(=O)C(=O)N2CCCC[C@H]2C(=O)O[C@H]([C@H](C)C[C@@H]2CC[C@@H](O)[C@H](OC)C2)CC(=O)[C@H](C)/C=C(\C)[C@@H](O)[C@@H](OC)C(=O)[C@H](C)C[C@H](C)/C=C/C=C/C=C/1C` [Sirolimus]: the solubility in water entry is “non-water soluble”.

Regarding `CC(=O)O[C@H]1C(=O)[C@@]2(C)[C@H]([C@H](OC(=O)c3ccccc3)[C@]3(O)C[C@H](OC(=O)[C@H](O)[C@@H](NC(=O)c4ccccc4)c4ccccc4)C(C)=C1C3(C)C)[C@]1(OC(C)=O)CO[C@@H]1C[C@@H]2O` [Taxol, paclitaxel], the solubility in water entry is given as “practically water insoluble”.
